Numbers after ± are expanded uncertainties.
Assay: xn = mol fraction of the nth substance listed
Settings: 101 kPa, Liquid; for speed of sound: Pulse-echo method; for mass density: Vibrating tube method; for viscosity: Concentric cylinders viscometry

CCCCCCCO [heptan-1-ol] + C1COCCO1
speed of sound (303.15 K, x1 = 0.55): 1296.7 ± 1.2 m/s | speed of sound (303.15 K, x1 = 0.6004): 1297.3 ± 1.2 m/s | speed of sound (303.15 K, x1 = 0.6501): 1298.3 ± 1.2 m/s | speed of sound (303.15 K, x1 = 0.7002): 1299.3 ± 1.2 m/s | speed of sound (303.15 K, x1 = 0.7493): 1300.7 ± 1.2 m/s | speed of sound (303.15 K, x1 = 0.7999): 1301.7 ± 1.2 m/s | speed of sound (303.15 K, x1 = 0.85): 1304.3 ± 1.2 m/s | speed of sound (303.15 K, x1 = 0.8998): 1306.1 ± 1.2 m/s | speed of sound (303.15 K, x1 = 0.9498): 1308.3 ± 1.2 m/s | speed of sound (303.15 K, x1 = 1): 1311.3 ± 1.2 m/s | mass density (303.15 K, x1 = 0.0505): 1003.12 ± 0.27 kg/m3 | mass density (303.15 K, x1 = 0.1): 985.996 ± 0.26 kg/m3 | mass density (303.15 K, x1 = 0.1501): 970.647 ± 0.26 kg/m3 | mass density (303.15 K, x1 = 0.2): 956.055 ± 0.26 kg/m3 | mass density (303.15 K, x1 = 0.25): 942.208 ± 0.25 kg/m3 | mass density (303.15 K, x1 = 0.2997): 929.584 ± 0.25 kg/m3 | mass density (303.15 K, x1 = 0.3502): 917.951 ± 0.25 kg/m3 | mass density (303.15 K, x1 = 0.4001): 907.108 ± 0.25 kg/m3 | mass density (303.15 K, x1 = 0.4498): 896.876 ± 0.24 kg/m3 | mass density (303.15 K, x1 = 0.4998): 887.314 ± 0.24 kg/m3 | mass density (303.15 K, x1 = 0.55): 878.474 ± 0.24 kg/m3 | mass density (303.15 K, x1 = 0.6004): 870.13 ± 0.24 kg/m3 | mass density (303.15 K, x1 = 0.6501): 862.139 ± 0.24 kg/m3 | mass density (303.15 K, x1 = 0.7002): 854.631 ± 0.24 kg/m3 | mass density (303.15 K, x1 = 0.7493): 847.338 ± 0.24 kg/m3 | mass density (303.15 K, x1 = 0.7999): 840.45 ± 0.24 kg/m3 | mass density (303.15 K, x1 = 0.85): 834.009 ± 0.24 kg/m3 | mass density (303.15 K, x1 = 0.8998): 827.706 ± 0.24 kg/m3 | mass density (303.15 K, x1 = 0.9498): 821.704 ± 0.24 kg/m3 | mass density (303.15 K, x1 = 1): 816.183 ± 0.23 kg/m3 | viscosity (308.15 K, x1 = 0.0505): 1.034 ± 0.036 mPa·s | viscosity (308.15 K, x1 = 0.1): 1.055 ± 0.037 mPa·s | viscosity (308.15 K, x1 = 0.1501): 1.093 ± 0.038 mPa·s | viscosity (308.15 K, x1 = 0.2): 1.129 ± 0.039 mPa·s | viscosity (308.15 K, x1 = 0.25): 1.183 ± 0.041 mPa·s | viscosity (308.15 K, x1 = 0.2997): 1.247 ± 0.043 mPa·s | viscosity (308.15 K, x1 = 0.3502): 1.324 ± 0.046 mPa·s | viscosity (308.15 K, x1 = 0.4001): 1.403 ± 0.049 mPa·s | viscosity (308.15 K, x1 = 0.4498): 1.497 ± 0.052 mPa·s | viscosity (308.15 K, x1 = 0.4998): 1.617 ± 0.056 mPa·s | viscosity (308.15 K, x1 = 0.55): 1.739 ± 0.06 mPa·s | viscosity (308.15 K, x1 = 0.6004): 1.881 ± 0.065 mPa·s | viscosity (308.15 K, x1 = 0.6501): 2.044 ± 0.071 mPa·s | viscosity (308.15 K, x1 = 0.7002): 2.234 ± 0.077 mPa·s | viscosity (308.15 K, x1 = 0.7493): 2.44 ± 0.085 mPa·s | viscosity (308.15 K, x1 = 0.7999): 2.696 ± 0.093 mPa·s | viscosity (308.15 K, x1 = 0.85): 2.985 ± 0.1 mPa·s | viscosity (308.15 K, x1 = 0.8998): 3.338 ± 0.12 mPa·s | viscosity (308.15 K, x1 = 0.9498): 3.747 ± 0.13 mPa·s | viscosity (308.15 K, x1 = 1): 4.27 ± 0.15 mPa·s | speed of sound (308.15 K, x1 = 0.0505): 1296.7 ± 1.2 m/s | speed of sound (308.15 K, x1 = 0.1): 1291.6 ± 1.2 m/s | speed of sound (308.15 K, x1 = 0.1501): 1287.8 ± 1.2 m/s | speed of sound (308.15 K, x1 = 0.2): 1284.7 ± 1.2 m/s | speed of sound (308.15 K, x1 = 0.25): 1282.2 ± 1.2 m/s | speed of sound (308.15 K, x1 = 0.2997): 1280.4 ± 1.2 m/s | speed of sound (308.15 K, x1 = 0.3502): 1279.4 ± 1.2 m/s | speed of sound (308.15 K, x1 = 0.4001): 1278.5 ± 1.2 m/s | speed of sound (308.15 K, x1 = 0.4498): 1278.2 ± 1.2 m/s | speed of sound (308.15 K, x1 = 0.4998): 1278.4 ± 1.2 m/s | speed of sound (308.15 K, x1 = 0.55): 1278.6 ± 1.2 m/s | speed of sound (308.15 K, x1 = 0.6004): 1279.4 ± 1.2 m/s | speed of sound (308.15 K, x1 = 0.6501): 1280.5 ± 1.2 m/s | speed of sound (308.15 K, x1 = 0.7002): 1281.7 ± 1.2 m/s | speed of sound (308.15 K, x1 = 0.7493): 1283.3 ± 1.2 m/s | speed of sound (308.15 K, x1 = 0.7999): 1284.4 ± 1.2 m/s | speed of sound (308.15 K, x1 = 0.85): 1287.2 ± 1.2 m/s | speed of sound (308.15 K, x1 = 0.8998): 1289 ± 1.2 m/s | speed of sound (308.15 K, x1 = 0.9498): 1291.4 ± 1.2 m/s | speed of sound (308.15 K, x1 = 1): 1294.5 ± 1.2 m/s | mass density (308.15 K, x1 = 0.0505): 997.647 ± 0.27 kg/m3 | mass density (308.15 K, x1 = 0.1): 980.695 ± 0.26 kg/m3 | mass density (308.15 K, x1 = 0.1501): 965.496 ± 0.26 kg/m3 | mass density (308.15 K, x1 = 0.2): 951.048 ± 0.26 kg/m3 | mass density (308.15 K, x1 = 0.25): 937.338 ± 0.25 kg/m3 | mass density (308.15 K, x1 = 0.2997): 924.84 ± 0.25 kg/m3 | mass density (308.15 K, x1 = 0.3502): 913.324 ± 0.25 kg/m3 | mass density (308.15 K, x1 = 0.4001): 902.591 ± 0.25 kg/m3 | mass density (308.15 K, x1 = 0.4498): 892.463 ± 0.24 kg/m3 | mass density (308.15 K, x1 = 0.4998): 882.999 ± 0.24 kg/m3 | mass density (308.15 K, x1 = 0.55): 874.248 ± 0.24 kg/m3 | mass density (308.15 K, x1 = 0.6004): 865.991 ± 0.24 kg/m3 | mass density (308.15 K, x1 = 0.6501): 858.083 ± 0.24 kg/m3 | mass density (308.15 K, x1 = 0.7002): 850.647 ± 0.24 kg/m3 | mass density (308.15 K, x1 = 0.7493): 843.436 ± 0.24 kg/m3 | mass density (308.15 K, x1 = 0.7999): 836.632 ± 0.24 kg/m3 | mass density (308.15 K, x1 = 0.85): 830.254 ± 0.24 kg/m3 | mass density (308.15 K, x1 = 0.8998): 824.01 ± 0.24 kg/m3 | mass density (308.15 K, x1 = 0.9498): 818.076 ± 0.24 kg/m3 | mass density (308.15 K, x1 = 1): 812.61 ± 0.23 kg/m3

Source: the NIST ThermoML archive (doi:10.1021/je400512u)
